Assay results: publication PMC8025548 (Carbohydrate Polymers, 2021)
In brackets after ≈: the same amount, converted by molar mass. Where two headings read alike, the source gives them in different places.

Assays:
[1] = SBECD-assisted equilibrium solubilization of REM, assayed by HPLC; format: physicochemical; details: for solubility at 24 h: pH 1.9
[2] = ref Larson, 2019, cited from earlier work

- solubility at 24 h ([1]; 20 % (w/w) aqueous SBECD solution): 7600 to 9700 µg/mL (≈ 12.6 to 16.1 mM)
- solubility at 24 h ([1]; 20 % aqueous SBECD solution): 8400 µg/mL (≈ 13.9 mM)
- improvement of the aqueous solubility of REM ([1]; with solubilizing carbohydrate (SBECD)): 300 fold
Compound: CCC(CC)COC(=O)[C@H](C)N[P@](=O)(OC[C@H]1O[C@@](C#N)(c2ccc3c(N)ncnn23)[C@H](O)[C@@H]1O)Oc1ccccc1 [REM, Remdesivir]
- dissolved REM ([2]; 20 % (w/w) aqueous solution of PEG-400): 3.3 mg/mL
- dissolved REM ([2]; 20 % (w/w) aqueous solution of SBECD): 8.5 mg/mL
- dissolved REM ([2]; 20 % (w/w) aqueous solution of Tween-80): 3.9 mg/mL
